Tests used:
[1] = target: Mitogen-activated protein kinase kinase kinase 15 (Homo sapiens) (UniProt Q6ZN16); conditions: Compound concentration 1000.0 nM
[2] = target: Mitotic checkpoint serine/threonine-protein kinase BUB1 (Homo sapiens) (UniProt O43683); conditions: Compound concentration 1000.0 nM
[3] = target: Death-associated protein kinase 1 (Homo sapiens) (UniProt P53355); conditions: Compound concentration 1000.0 nM
[4] = target: Mitogen-activated protein kinase kinase kinase 4 (Homo sapiens) (UniProt Q9Y6R4); conditions: Compound concentration 1000.0 nM
[5] = target: Serine/threonine-protein kinase 16 (Homo sapiens) (UniProt O75716); conditions: Compound concentration 1000.0 nM
[6] = target: Ephrin type-A receptor 2 (Homo sapiens) (UniProt P29317); conditions: Compound concentration 1000.0 nM
[7] = target: Serine/threonine-protein kinase ULK1 (Homo sapiens) (UniProt O75385); conditions: Compound concentration 1000.0 nM
[8] = target: Tyrosine-protein kinase JAK3 (Homo sapiens) (UniProt P52333); conditions: Compound concentration 1000.0 nM
[9] = tested on: Hepatocyte growth factor receptor (Homo sapiens), P08581 [Y1235D]; conditions: Compound concentration 1000.0 nM
[10] = target: D(4) dopamine receptor (Homo sapiens) (UniProt P21917); conditions: Compound concentration 10.0 uM
[11] = target: Non-receptor tyrosine-protein kinase TYK2 (Homo sapiens) (UniProt P29597); conditions: Compound concentration 1000.0 nM
[12] = target: Epidermal growth factor receptor (Homo sapiens) (UniProt P00533); conditions: Compound concentration 1000.0 nM
[13] = target: Dual specificity tyrosine-phosphorylation-regulated kinase 1B (Homo sapiens) (UniProt Q9Y463); conditions: Compound concentration 1000.0 nM
[14] = target: Tyrosine-protein kinase TXK (Homo sapiens) (UniProt P42681); conditions: Compound concentration 1000.0 nM
[15] = target: Cyclin-dependent kinase 8 (Homo sapiens) (UniProt P49336); conditions: Compound concentration 1000.0 nM
[16] = tested on: Phosphatidylinositol 4,5-bisphosphate 3-kinase catalytic subunit alpha isoform (Homo sapiens), P42336 [C420R]; conditions: Compound concentration 1000.0 nM
[17] = target: Serine/threonine-protein kinase Nek6 (Homo sapiens) (UniProt Q9HC98); conditions: Compound concentration 1000.0 nM
[18] = target: Serine/threonine-protein kinase B-raf (Homo sapiens) (UniProt P15056); conditions: Compound concentration 1000.0 nM
[19] = tested on: Tyrosine-protein kinase ABL1 (Homo sapiens), P00519 [E255K]; conditions: Compound concentration 1000.0 nM
[20] = target: Casein kinase I isoform alpha-like (Homo sapiens) (UniProt Q8N752); conditions: Compound concentration 1000.0 nM
[21] = target: T1, GABA-A receptor; anion channel (Rattus norvegicus) (UniProt O09028+P15431+P18506+P18508+P19969+P20236+P23574+P23576+P28471+P28473+P30191+P62813+P63079+P63138+Q91ZM7+Q9ES14); conditions: Compound concentration 10.0 uM
[22] = target: Serine/threonine-protein kinase DCLK3 (Homo sapiens) (UniProt Q9C098); conditions: Compound concentration 1000.0 nM
[23] = target: Cyclin-dependent kinase 14 (Homo sapiens) (UniProt O94921); conditions: Compound concentration 1000.0 nM
[24] = target: Tyrosine-protein kinase Yes (Homo sapiens) (UniProt P07947); conditions: Compound concentration 1000.0 nM
[25] = target: Sodium-dependent dopamine transporter (Homo sapiens, UniProt Q01959); assay: GPCRScan assay: inhibition of DAT; parameters: radioligand conc. used [nm] 3.6 – 16.0, parental cells stable HEK
[26] = tested on: Receptor-type tyrosine-protein kinase FLT3 (Homo sapiens), P36888 [D835Y]; conditions: Compound concentration 1000.0 nM
[27] = target: Serine/threonine-protein kinase BRSK2 (Homo sapiens) (UniProt Q8IWQ3); conditions: Compound concentration 1000.0 nM
[28] = target: Calcium/calmodulin-dependent protein kinase type II subunit alpha (Homo sapiens) (UniProt Q9UQM7); conditions: Compound concentration 1000.0 nM
[29] = target: 5-hydroxytryptamine receptor 1A (Homo sapiens) (UniProt P08908); conditions: Compound concentration 10.0 uM
[30] = target: Membrane-associated tyrosine- and threonine-specific cdc2-inhibitory kinase (Homo sapiens) (UniProt Q99640); conditions: Compound concentration 1000.0 nM
[31] = target: Activin receptor type-1 (Homo sapiens) (UniProt Q04771); conditions: Compound concentration 1000.0 nM
[32] = target: Dual specificity protein kinase TTK (Homo sapiens) (UniProt P33981); conditions: Compound concentration 1000.0 nM
[33] = target: Phosphorylase b kinase gamma catalytic chain, skeletal muscle/heart isoform (Homo sapiens) (UniProt Q16816); conditions: Compound concentration 1000.0 nM
[34] = target: Serine/threonine-protein kinase PLK2 (Homo sapiens) (UniProt Q9NYY3); conditions: Compound concentration 1000.0 nM
[35] = target: Serine/threonine-protein kinase Sgk3 (Homo sapiens) (UniProt Q96BR1); conditions: Compound concentration 1000.0 nM
[36] = target: Serine/threonine-protein kinase 26 (Homo sapiens) (UniProt Q9P289); conditions: Compound concentration 1000.0 nM
[37] = target: T1, GABA-A receptor; anion channel (Rattus norvegicus); conditions: Compound concentration 10.0 uM; remark: listed apart in the source
[38] = target: Casein kinase I isoform delta (Homo sapiens) (UniProt P48730); conditions: Compound concentration 1000.0 nM
[39] = target: Sigma intracellular receptor 2 (Homo sapiens) (UniProt Q5BJF2); conditions: Compound concentration 10.0 uM
[40] = target: Tyrosine-protein kinase Blk (Homo sapiens) (UniProt P51451); conditions: Compound concentration 1000.0 nM
[41] = target: Mitogen-activated protein kinase kinase kinase 7 (Homo sapiens) (UniProt O43318); conditions: Compound concentration 1000.0 nM
[42] = target: LIM domain kinase 1 (Homo sapiens) (UniProt P53667); conditions: Compound concentration 1000.0 nM

Sodium-dependent dopamine transporter, sequence (Q01959 whole entry): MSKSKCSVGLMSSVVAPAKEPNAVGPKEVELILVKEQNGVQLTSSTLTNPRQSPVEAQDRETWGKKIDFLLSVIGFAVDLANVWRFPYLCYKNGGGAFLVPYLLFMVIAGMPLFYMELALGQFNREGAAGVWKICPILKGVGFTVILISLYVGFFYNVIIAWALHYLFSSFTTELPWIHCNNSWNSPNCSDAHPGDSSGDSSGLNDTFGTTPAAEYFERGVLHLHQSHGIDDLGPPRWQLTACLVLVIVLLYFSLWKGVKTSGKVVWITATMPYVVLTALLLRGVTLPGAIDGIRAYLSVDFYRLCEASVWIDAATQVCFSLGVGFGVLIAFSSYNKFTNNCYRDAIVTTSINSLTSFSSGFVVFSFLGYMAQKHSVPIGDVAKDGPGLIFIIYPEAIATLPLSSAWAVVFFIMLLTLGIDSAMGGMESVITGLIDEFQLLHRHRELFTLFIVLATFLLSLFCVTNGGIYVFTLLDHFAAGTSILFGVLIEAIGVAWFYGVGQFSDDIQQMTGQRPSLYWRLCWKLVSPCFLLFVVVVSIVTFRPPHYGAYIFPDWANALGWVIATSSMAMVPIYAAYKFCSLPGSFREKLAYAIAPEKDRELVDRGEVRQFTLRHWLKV
5-hydroxytryptamine receptor 1A (Homo sapiens), sequence (P08908 whole entry): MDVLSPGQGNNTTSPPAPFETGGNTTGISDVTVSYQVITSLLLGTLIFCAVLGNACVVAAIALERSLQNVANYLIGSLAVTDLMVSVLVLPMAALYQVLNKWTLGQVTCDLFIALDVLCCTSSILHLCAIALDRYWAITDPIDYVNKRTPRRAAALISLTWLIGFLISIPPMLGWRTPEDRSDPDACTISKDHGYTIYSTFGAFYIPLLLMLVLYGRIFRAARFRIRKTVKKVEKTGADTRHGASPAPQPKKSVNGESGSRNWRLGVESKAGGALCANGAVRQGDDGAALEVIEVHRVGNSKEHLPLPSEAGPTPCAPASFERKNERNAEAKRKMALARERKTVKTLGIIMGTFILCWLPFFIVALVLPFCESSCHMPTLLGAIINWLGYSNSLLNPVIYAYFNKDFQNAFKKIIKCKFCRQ
Serine/threonine-protein kinase ULK1 (Homo sapiens), sequence (O75385 whole entry): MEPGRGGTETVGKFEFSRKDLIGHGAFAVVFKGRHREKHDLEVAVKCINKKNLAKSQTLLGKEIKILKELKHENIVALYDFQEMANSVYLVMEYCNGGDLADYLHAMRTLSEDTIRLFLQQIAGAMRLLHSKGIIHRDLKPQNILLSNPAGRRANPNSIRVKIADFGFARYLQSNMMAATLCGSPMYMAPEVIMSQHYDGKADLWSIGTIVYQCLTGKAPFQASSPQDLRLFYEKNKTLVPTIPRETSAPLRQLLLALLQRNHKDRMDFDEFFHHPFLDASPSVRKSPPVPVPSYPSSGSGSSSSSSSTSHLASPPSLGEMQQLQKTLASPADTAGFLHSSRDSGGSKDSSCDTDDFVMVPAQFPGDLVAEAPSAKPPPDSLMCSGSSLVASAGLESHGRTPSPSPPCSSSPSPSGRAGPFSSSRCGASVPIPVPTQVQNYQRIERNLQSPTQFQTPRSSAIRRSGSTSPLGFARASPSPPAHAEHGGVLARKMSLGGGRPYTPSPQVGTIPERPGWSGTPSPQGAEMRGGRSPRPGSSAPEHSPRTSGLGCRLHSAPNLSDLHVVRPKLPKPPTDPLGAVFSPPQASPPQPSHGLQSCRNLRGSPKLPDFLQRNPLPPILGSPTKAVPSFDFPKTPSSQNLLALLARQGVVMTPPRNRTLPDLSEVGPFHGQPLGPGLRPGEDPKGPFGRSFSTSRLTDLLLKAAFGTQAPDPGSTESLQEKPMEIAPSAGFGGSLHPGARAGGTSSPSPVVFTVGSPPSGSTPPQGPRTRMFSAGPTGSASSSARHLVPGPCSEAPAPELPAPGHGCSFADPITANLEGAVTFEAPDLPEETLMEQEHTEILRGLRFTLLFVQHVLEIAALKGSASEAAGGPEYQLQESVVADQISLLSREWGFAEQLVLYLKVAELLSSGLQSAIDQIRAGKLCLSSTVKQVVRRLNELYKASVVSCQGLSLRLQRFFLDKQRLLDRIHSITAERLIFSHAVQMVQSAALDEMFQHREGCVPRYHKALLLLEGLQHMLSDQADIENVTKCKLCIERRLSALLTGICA
Mitogen-activated protein kinase kinase kinase 4 (Homo sapiens), sequence (Q9Y6R4 whole entry): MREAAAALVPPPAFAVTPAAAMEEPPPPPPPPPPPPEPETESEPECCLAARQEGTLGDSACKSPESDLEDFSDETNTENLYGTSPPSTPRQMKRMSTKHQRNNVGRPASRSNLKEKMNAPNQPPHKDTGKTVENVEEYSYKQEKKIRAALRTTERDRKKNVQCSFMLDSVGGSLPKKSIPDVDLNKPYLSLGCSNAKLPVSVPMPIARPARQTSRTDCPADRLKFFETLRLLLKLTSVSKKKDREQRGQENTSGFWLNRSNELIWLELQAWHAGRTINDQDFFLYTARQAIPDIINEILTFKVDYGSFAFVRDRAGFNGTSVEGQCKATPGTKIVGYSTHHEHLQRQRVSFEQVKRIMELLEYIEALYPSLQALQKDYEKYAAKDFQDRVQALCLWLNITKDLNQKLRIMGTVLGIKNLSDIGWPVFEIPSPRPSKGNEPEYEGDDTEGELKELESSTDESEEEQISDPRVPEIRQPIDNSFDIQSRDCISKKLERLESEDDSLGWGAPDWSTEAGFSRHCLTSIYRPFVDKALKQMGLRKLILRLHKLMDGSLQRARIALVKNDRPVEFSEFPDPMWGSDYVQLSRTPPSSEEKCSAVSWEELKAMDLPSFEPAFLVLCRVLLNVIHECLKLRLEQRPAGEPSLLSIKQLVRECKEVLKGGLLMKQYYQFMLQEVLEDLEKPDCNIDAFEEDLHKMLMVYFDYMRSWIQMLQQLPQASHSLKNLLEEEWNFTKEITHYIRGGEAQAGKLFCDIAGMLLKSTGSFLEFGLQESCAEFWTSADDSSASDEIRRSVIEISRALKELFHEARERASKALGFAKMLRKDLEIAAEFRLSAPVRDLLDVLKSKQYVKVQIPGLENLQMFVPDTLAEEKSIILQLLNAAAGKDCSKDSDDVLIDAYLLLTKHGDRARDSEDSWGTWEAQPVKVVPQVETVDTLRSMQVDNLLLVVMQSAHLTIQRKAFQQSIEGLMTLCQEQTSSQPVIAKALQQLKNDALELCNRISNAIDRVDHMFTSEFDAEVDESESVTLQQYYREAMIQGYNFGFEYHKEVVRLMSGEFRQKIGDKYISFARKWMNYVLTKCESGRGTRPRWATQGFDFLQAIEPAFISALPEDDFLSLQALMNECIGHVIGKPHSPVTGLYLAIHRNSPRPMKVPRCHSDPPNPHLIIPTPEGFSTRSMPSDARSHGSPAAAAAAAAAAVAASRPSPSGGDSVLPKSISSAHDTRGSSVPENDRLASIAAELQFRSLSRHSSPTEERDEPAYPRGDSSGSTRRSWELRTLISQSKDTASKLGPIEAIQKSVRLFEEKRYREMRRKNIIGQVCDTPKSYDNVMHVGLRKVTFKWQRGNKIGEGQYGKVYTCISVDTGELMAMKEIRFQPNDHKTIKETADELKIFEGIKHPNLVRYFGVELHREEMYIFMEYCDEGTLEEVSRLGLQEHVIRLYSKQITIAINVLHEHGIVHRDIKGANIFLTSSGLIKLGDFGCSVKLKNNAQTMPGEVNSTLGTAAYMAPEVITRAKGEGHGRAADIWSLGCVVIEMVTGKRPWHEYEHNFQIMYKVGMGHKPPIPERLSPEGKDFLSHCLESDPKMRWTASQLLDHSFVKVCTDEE
Mitogen-activated protein kinase kinase kinase 15 (Homo sapiens), sequence (Q6ZN16 whole entry): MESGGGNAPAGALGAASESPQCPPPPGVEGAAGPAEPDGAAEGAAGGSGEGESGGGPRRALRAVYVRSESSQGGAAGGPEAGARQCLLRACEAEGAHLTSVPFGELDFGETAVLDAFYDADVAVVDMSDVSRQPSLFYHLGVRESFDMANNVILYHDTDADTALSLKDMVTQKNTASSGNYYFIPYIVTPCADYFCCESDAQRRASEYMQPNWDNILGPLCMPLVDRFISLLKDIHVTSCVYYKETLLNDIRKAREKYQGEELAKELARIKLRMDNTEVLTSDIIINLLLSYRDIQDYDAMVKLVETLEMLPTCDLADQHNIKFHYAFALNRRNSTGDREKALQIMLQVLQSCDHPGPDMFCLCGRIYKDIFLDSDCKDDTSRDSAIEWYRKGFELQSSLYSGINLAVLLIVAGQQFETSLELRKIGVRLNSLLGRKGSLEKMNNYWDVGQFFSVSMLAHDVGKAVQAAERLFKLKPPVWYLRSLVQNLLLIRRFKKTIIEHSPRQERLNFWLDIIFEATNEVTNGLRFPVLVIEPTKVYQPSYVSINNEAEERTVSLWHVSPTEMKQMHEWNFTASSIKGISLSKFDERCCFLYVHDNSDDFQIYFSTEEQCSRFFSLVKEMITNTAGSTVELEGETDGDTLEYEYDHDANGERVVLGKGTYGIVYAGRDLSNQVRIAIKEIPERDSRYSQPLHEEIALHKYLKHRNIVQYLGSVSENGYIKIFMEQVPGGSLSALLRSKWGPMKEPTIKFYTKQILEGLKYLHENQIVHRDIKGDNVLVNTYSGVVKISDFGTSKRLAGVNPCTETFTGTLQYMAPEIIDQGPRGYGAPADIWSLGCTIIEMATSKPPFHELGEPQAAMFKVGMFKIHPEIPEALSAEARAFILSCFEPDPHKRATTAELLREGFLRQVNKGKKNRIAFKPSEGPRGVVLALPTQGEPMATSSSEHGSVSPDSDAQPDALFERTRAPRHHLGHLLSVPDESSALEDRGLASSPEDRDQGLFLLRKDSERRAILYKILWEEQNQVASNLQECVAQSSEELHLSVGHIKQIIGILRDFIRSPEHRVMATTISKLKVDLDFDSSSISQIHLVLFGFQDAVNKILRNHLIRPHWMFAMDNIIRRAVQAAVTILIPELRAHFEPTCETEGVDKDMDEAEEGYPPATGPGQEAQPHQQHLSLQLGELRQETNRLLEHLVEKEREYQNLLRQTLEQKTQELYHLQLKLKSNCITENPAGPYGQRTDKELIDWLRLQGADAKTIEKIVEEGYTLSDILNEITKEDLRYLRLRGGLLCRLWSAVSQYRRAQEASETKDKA

`Cc1nc(N2CC[C@@H](O)C2)ncc1-c1cc(C(F)(F)F)cc2[nH]ncc12` [TP-004] showed a residual activity [1] of 100%, a residual activity [2] of 75% and a residual activity [3] of 89%. For the same molecule, the residual activity [4] was 100%, the residual activity [5] was 92% and the residual activity [6] was 100%. For the same molecule, the residual activity [7] was 76%, the residual activity [8] was 77% and the residual activity [9] was 81%. It also gave an inhibition [10] of 7.69%, a residual activity [11] of 70% and a residual activity [12] of 71%. For the same molecule, the residual activity [13] was 96%, the residual activity [14] was 100% and the residual activity [15] was 88%. It also gave a residual activity [16] of 82%, a residual activity [17] of 89% and a residual activity [18] of 73%. For the same molecule, the residual activity [19] was 77%, the residual activity [20] was 93% and the inhibition [21] was 16.2%. It also gave a residual activity [22] of 96%, a residual activity [23] of 100% and a residual activity [24] of 90%. For the same molecule, the Ki ([25]; read-out: Ki) was 1680 nM, the Ki ([25]; read-out: pKi (converted)) was 1580 nM and the residual activity [26] was 80%. The residual activity [27] was 90%, the residual activity [28] was 100% and the inhibition [29] was 20%. For the same molecule, the residual activity [30] was 100%, the residual activity [31] was 80% and the residual activity [32] was 100%. For the same molecule, the residual activity [33] was 81%, the residual activity [34] was 76% and the residual activity [35] was 70%. It also gave a residual activity [36] of 59%, an inhibition [37] of 54.3% and a residual activity [38] of 95%. It also gave an inhibition [39] of 45.5%, a residual activity [40] of 100% and a residual activity [41] of 89%. For the same molecule, the residual activity [42] was 85%.

From ChEMBL document CHEMBL4507303, “Data for DCP probe TP-004” (2021)
